# According to ChEMBL document CHEMBL5550185, “Targeting hTERT Promoter G-Quadruplex DNA Structures with Small-Molecule Ligand to Downregulate hTERT Expression for Triple-Negative Breast Cancer Therapy” (J Med Chem, 2024):
# Calls of active or inactive are those of the source. No cut-off for these calls is given here.
# How the values were obtained:
# [1] = Selectivity ratio of binding affinity to human TERT G4 DNA to binding affinity to Dt21 ssDNA (unknown origin)
# [2] = Upregulation of TGFB3 gene expression in human MDA-MB-231 cells assessed as fold change at 1 uM measured after 48 hrs by RNA-seq analysis relative to control; type: functional
# Quadruplex DNA [3] = experiment: Binding affinity to Bcl-2 G4 DNA (unknown origin) assessed as dissociation constant by ITC analysis; type: nucleic-acid assay
# MDA-MB-231 [4] = experiment: Induction of cell cycle arrest in human MDA-MB-231 cells assessed as accumulation of cells at G2/M phase at 0.5 to 1.5 uM measured after 48 hrs by 7-aminoactinomycin D/RNase staining based flow cytometry analysis (reference value: 14.3%); type: functional; conditions: dose 0.5-1.5 µM
# MDA-MB-231 [5] = experiment: Downregulation of ND4 gene expression in human MDA-MB-231 cells at 1 uM measured after 48 hrs by RNA-seq analysis; type: functional, cell-based
# [6] = Toxicity in female Balb/c nude mouse xenografted with human MDA-MB-231 cells assessed as change in mean corpuscular hemoglobin concentration at 2 to 5 mg/kg, iv administered via tail vein every 2 days for 16 days; type: organism-based; conditions: in vivo, 384 h, dose 2-5 mg/kg, time 16 day
# MDA-MB-231 [7] = experiment: Disruption of energy metabolism in human MDA-MB-231 cells assessed as reduction in cellular energy production by measuring reduction in ATP production at 0 to 1.5 uM measured after 2 hrs by Seahorse XF24 analyzer; type: functional, cell-based; conditions: dose 0-1.5 µM
# Quadruplex DNA [8] = experiment: Binding affinity to Bcl-2 G4 DNA (unknown origin) assessed as change in gibbs free energy at 400 uM by ITC analysis; type: nucleic-acid assay
# Homo sapiens [9] = organism: Homo sapiens; experiment: Binding affinity to antisense i-hTERT DNA assessed as change in enthalpy at 400 uM by ITC analysis
# [10] = Toxicity in female Balb/c nude mouse xenografted with human MDA-MB-231 cells assessed as change in […] level at 2 to 5 mg/kg, iv administered via tail vein every 2 days for 16 days; type: organism-based; conditions: in vivo, 384 h, dose 2-5 mg/kg, time 16 day
# MDA-MB-231 [11] = experiment: Induction of mitochondrial dysfunction in human MDA-MB-231 cells assessed as downregulation of mitochondrial respiratory complex III-UQCRC2 expression incubated for 48 hrs by Western blot analysis; type: functional, cell-based; conditions: dose 0-1.5 µM
# Homo sapiens [12] = organism: Homo sapiens; experiment: Binding affinity to antisense i-hTERT DNA assessed as change in gibbs free energy at 400 uM by ITC analysis
# [13] = Upregulation of TNFSF10 gene expression in human MDA-MB-231 cells assessed as fold change at 1 uM measured after 48 hrs by RNA-seq analysis relative to control; type: functional
# MDA-MB-231 [14] = experiment: Induction of senescence in human MDA-MB-231 cells at 0 to 1.5 uM measured after 48 hrs by SA-beta-gal assay; type: functional, cell-based; conditions: dose 0-1.5 µM
# [15] = Upregulation of S1PR1 gene expression in human MDA-MB-231 cells assessed as fold change at 1 uM measured after 48 hrs by RNA-seq analysis relative to control; type: functional
# Quadruplex DNA [16] = experiment: Binding affinity to human TERT G4 DNA in Tris-HCl buffer at pH 7.4 assessed as fold increase in fluorescence signal at 5 uM by fluorescence spectrometer relative to control; type: nucleic-acid assay
# [17] = Upregulation of SAT2 gene expression in human MDA-MB-231 cells assessed as fold change at 1 uM measured after 48 hrs by RNA-seq analysis relative to control; type: functional
# Quadruplex DNA [18] = experiment: Binding affinity to Telo21 G4 DNA (unknown origin) assessed as change in gibbs free energy at 400 uM by ITC analysis; type: nucleic-acid assay
# [19] = Upregulation of CCND2 gene expression in human MDA-MB-231 cells assessed as fold change at 1 uM measured after 48 hrs by RNA-seq analysis relative to control; type: functional
# DNA [20] = experiment: Binding affinity to Ds26 duplex DNA (unknown origin) assessed as dissociation constant by ITC analysis; type: nucleic-acid assay
# DNA [21] = experiment: Binding affinity to Ds26 duplex DNA (unknown origin) assessed as change in enthalpy at 400 uM by ITC analysis; type: nucleic-acid assay
# [22] = Toxicity in female Balb/c nude mouse xenografted with human MDA-MB-231 cells assessed as signs of pain at 2 to 5 mg/kg, iv administered via tail vein every 2 days for 16 days; type: organism-based; conditions: in vivo, 384 h, dose 2-5 mg/kg, time 16 day
# [23] = Upregulation of HLA-B gene expression in human MDA-MB-231 cells assessed as fold change at 1 uM measured after 48 hrs by RNA-seq analysis relative to control; type: functional
# MDA-MB-231 [24] = experiment: Induction of mitochondrial dysfunction in human MDA-MB-231 cells assessed as mitochondrial membrane potential impairment at 0 to 1.5 uM incubated for 48 hrs by Hoechst33342 staining based microscopic analysis; type: functional, cell-based; conditions: dose 0-1.5 µM
# DNA [25] = experiment: Binding affinity to DNA in telomerase-positive live human MDA-MB-231 cells assessed as reduction in fluorescence at 5 uM preincubated for 10 mins followed by washout and DNase I addition measured after 2 hrs by Hoechst 33342 staining based confocal microscopic analysis; type: cell-based
# MDA-MB-231 [26] = experiment: Downregulation of hTERT mRNA expression in human MDA-MB-231 cells measured after 48 hrs by qRT-PCR analysis; type: functional, cell-based; conditions: dose 0-1.5 µM
# Quadruplex DNA [27] = experiment: Binding affinity to hTERT G4 DNA assessed as change in gibbs free energy at 400 uM by ITC analysis; type: nucleic-acid assay; conditions: Homo sapiens
# [28] = Toxicity in female Balb/c nude mouse xenografted with human MDA-MB-231 cells assessed as change in uric acid level at 2 to 5 mg/kg, iv administered via tail vein every 2 days for 16 days; type: organism-based; conditions: in vivo, 384 h, dose 2-5 mg/kg, time 16 day
# MDA-MB-231 [29] = experiment: Induction of oxidative stress in human MDA-MB-231 cells assessed as cellular DNA fragmentation at 0 to 1.5 uM measured after 48 hrs by comet assay; type: functional, cell-based; conditions: dose 0-1.5 µM
# [30] = Binding affinity to antisense i-hTERT DNA assessed as dissociation constant by ITC analysis; design: species or system Homo sapiens
# MDA-MB-231 [31] = experiment: Cytotoxicity against human MDA-MB-231 cells without hTERT overexpression assessed as inhibition of cell growth measured after 48 hrs by MTT assay; type: functional, cell-based; conditions: MDA-MB-231, 48 h
# [32] = Upregulation of EGF gene expression in human MDA-MB-231 cells assessed as fold change at 1 uM measured after 48 hrs by RNA-seq analysis relative to control; type: functional
# [33] = Toxicity in female Balb/c nude mouse xenografted with human MDA-MB-231 cells assessed as change in RBC count at 2 to 5 mg/kg, iv administered via tail vein every 2 days for 16 days; type: organism-based, Erythrocyte; conditions: in vivo, 384 h, dose 2-5 mg/kg, time 16 day
# [34] = Upregulation of IL-1A gene expression in human MDA-MB-231 cells assessed as fold change at 1 uM measured after 48 hrs by RNA-seq analysis relative to control; type: functional
# MDA-MB-231 [35] = experiment: Activation of apoptosis in human MDA-MB-231 cells assessed as downregulation of Bcl-2 protein expression measured after 48 hrs by Western blot analysis; type: functional, cell-based; conditions: dose 0-1.5 µM
# [36] = Upregulation of TGFB2 gene expression in human MDA-MB-231 cells assessed as fold change at 1 uM measured after 48 hrs by RNA-seq analysis relative to control; type: functional
# [37] = Upregulation of CDKN1A gene expression in human MDA-MB-231 cells assessed as fold change at 1 uM measured after 48 hrs by RNA-seq analysis relative to control; type: functional
smiles,measurement,setting,value
C[n+]1c(/C=C/c2c[nH]c3ccccc23)cc(/C=C2\Sc3ccccc3N2CCCN2CCC(C(F)(F)F)CC2)c2ccccc21.[I-],Selectivity ratio,[1],18
same,fold change (FC),[2],>2
same,Kd,Quadruplex DNA [3],3.61 µM
same,Activity,MDA-MB-231 [4],32%
same,Activity,MDA-MB-231 [5],Active
same,Activity,[6],Non-Toxic
same,Activity,MDA-MB-231 [7],Active
same,deltaG,Quadruplex DNA [8],-7.43 kcal/mol
same,deltaH,Homo sapiens [9],-1.2 kcal/mol
same,Activity,[10],Non-Toxic
same,Activity,MDA-MB-231 [11],Dose-Dependent Effect
same,deltaG,Homo sapiens [12],-7.58 kcal/mol
same,fold change (FC),[13],>2
same,Activity,MDA-MB-231 [14],Active
same,fold change (FC),[15],>2
same,fold change (FC),Quadruplex DNA [16],29
same,fold change (FC),[17],>2
same,deltaG,Quadruplex DNA [18],-7.49 kcal/mol
same,fold change (FC),[19],>2
same,Kd,DNA [20],18.9 µM
same,deltaH,DNA [21],-1.32 kcal/mol
same,Activity,[22],Non-Toxic
same,fold change (FC),[23],>2
same,Activity,MDA-MB-231 [24],Active
same,Activity,DNA [25],Active
same,Activity,MDA-MB-231 [26],Dose-Dependent Effect
same,deltaG,Quadruplex DNA [27],-8.11 kcal/mol
same,Activity,[28],Non-Toxic
same,Activity,MDA-MB-231 [29],Active
same,Kd,[30],2.79 µM
same,IC50,MDA-MB-231 [31],1.2 µM
same,fold change (FC),[32],>2
same,Activity,[33],Non-Toxic
same,fold change (FC),[34],>2
same,Activity,MDA-MB-231 [35],Dose-Dependent Effect
same,fold change (FC),[36],>2
same,fold change (FC),[37],>2
